The record followed here is BindingDB's records for patent US20250092022 (Neurocrine Biosciences, 2025).

For the experiment, the target named is T1, Muscarinic acetylcholine receptor M4 (Homo sapiens, UniProt P08173).
T1 sequence (P08173 whole entry): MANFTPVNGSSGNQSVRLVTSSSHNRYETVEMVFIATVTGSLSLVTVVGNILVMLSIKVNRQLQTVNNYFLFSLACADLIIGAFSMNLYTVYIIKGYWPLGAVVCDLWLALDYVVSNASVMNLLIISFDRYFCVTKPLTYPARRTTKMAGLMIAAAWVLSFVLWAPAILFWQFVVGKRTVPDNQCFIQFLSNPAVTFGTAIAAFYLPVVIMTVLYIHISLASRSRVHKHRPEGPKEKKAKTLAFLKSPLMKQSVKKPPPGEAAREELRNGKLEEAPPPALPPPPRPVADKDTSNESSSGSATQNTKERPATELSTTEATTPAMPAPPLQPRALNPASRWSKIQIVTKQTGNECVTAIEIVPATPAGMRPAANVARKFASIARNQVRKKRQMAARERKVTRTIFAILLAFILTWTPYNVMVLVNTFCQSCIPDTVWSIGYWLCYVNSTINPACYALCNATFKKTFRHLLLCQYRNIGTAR
The experiment in a line: Binding Assay. The protocol:
Binding affinity (Ki) for the compounds was measured by inhibition of radioligand binding to membranes from CHO cells expressing human M4 receptor. Membranes were prepared by nitrogen cavitation and differential centrifugation as previously described (Hoare et al., Mol. Pharmacol. 2003 March; 63(3): 751-65). The radioligand employed was tritiated N-methylscopolamine, used at a concentration of 1.5 nM. A dose-response of twelve concentrations of compound was used, […]. The assay buffer was 50 mM HEPES, 100 mM NaCl, 5 mM MgCl2, 1 mM ethylenediaminetetraacetic acid, pH-adjusted to pH 7.4. Membranes, radioligand and compound were incubated together for 90 minutes at 37° C., in a total volume of 150 μL in a 96-well plate. Receptor-bound radioligand was then collected by harvesting the assay over glass fiber filters pretreated with polyethylenimine to trap the cell membranes, using rapid vacuum filtration. Harvesting and radioactivity counting was conducted as previously described (see, e.g., Hoare et al., Mol. Pharmacol. 2003 63(3):751-65); Erratum at Mol. Pharmacol. 2005 July; 68(1): 260).
Regarding `C[C@@H]1CN(c2ncc(S(=O)(=O)C3CC3)cn2)C[C@@H](C)N1C(=O)OC1CC2(C1)CN(Cc1ccccc1)C2` [US20250092022, Compound 19], the Ki – broadly, a dissociation constant, usually derived from enzyme kinetics or from competition with a known ligand – is < 100 nM.

As to `Cc1nc(N2C[C@@H](C)N(C(=O)OC3CC4(C3)CN(Cc3ccccc3)C4)[C@@H](C)C2)ncc1S(C)(=O)=O` [US20250092022, Compound 40], the inhibitory constant (Ki) is < 100 nM.

Take `C[C@@H]1CN(c2ncc(S(=O)(=O)C(F)F)cn2)C[C@H](C)N1C(=O)OC1CC2(C1)CN(Cc1ccccc1)C2` [US20250092022, Compound 41]: the Ki was < 100 nM.

For the compound `C[C@@H]1CN(c2ncc(OCCO)cn2)C[C@H](C)N1C(=O)OC1CC2(C1)CN(Cc1ccccc1)C2` [US20250092022, Compound 52], the Ki was > 500 nM.
